Measured values: US11225480B2, “Malic enzyme inhibitors” (SUN PHARMA ADVANCED RESEARCH COMPANY LTD, priority 2019, dated 2022)
Where a name gives a salt, the structure may show the parent alone.

The compounds below were run against T1, human ME3 enzyme (Homo sapiens, UniProt Q16798) (assay: ME3 inhibition assay (diaphorase/resazurin coupled fluorescence)). Conditions: 10 μM compound concentration; read-out: Malic Enzyme 3 % inhibition (10 μM).
T1 sequence (Q16798 1-604): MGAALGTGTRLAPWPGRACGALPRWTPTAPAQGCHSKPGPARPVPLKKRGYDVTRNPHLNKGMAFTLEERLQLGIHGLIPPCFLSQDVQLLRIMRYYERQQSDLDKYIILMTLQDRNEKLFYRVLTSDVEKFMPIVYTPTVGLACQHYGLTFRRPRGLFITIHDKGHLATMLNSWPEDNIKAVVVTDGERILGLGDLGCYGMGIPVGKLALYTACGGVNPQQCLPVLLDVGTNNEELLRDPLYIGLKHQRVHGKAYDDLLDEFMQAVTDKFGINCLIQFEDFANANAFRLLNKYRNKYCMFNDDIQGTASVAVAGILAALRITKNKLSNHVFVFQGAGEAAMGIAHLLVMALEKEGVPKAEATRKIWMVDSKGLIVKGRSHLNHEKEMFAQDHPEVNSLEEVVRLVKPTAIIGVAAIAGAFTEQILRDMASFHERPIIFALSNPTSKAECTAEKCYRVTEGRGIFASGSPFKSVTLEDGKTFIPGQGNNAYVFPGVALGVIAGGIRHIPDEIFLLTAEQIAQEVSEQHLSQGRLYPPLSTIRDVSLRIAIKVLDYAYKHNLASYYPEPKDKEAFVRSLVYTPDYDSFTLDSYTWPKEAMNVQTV
Type: biochemical
Procedure: ME3 catalyzes the oxidative decarboxylation of malate to pyruvate with conversion of the co-factor β-NADP+ to NADPH. In the fluorescence assay, a coupled reaction is set up wherein an enzyme, Diaphorase, utilizes NADPH generated by ME3, to convert the dye resazurin to a fluorescent molecule resorufin.
The enzyme activity inhibition assay is set up in a 200 μL final reaction volume in a 96-well plate. As per the experimental design, 2 μL of the test compounds at 100× the desired concentration (10 μM) in DMSO were added to the respective wells with 178 μL of assay buffer (50 mM Tris-HCl pH 7.5, 10 mM MnCl2, 3 mM L-malate, 50 μM Resazurin and 0.025 mg/ml Diapharose). The 96-well plate was incubated on a plate shaker at room temperature for 15 minutes protected from light. The well contents were gently mixed by adding 10 μL of 20 nM human ME3 enzyme to the wells and the plate was incubated on a shaker at room temperature for 5 minutes protected from light. Suitable enzyme only and no enzyme controls were included in the experiment. The enzyme reaction was started by adding 10 μL of 1 mM D-NADP+. The reaction was gently mixed and the plate was initially left on a shaker at room temperature for ˜7 minutes protected from light. Later, the plate was incubated without shaking at room temperature for 3 hours. At the end of 3 hours, the fluorescence of the wells was measured at excitation 540 nm and emission 600 nm.

`O=C(c1cccc2[nH]ccc12)N1CCN(c2ccc(O)cc2)CC1` [I.30, [4-(4-Hydroxy-phenyl)-piperazin-1-yl]-(1H-indol-4-yl)-methanone] and `O=C(c1cccc2cc3ccccc3cc12)N1CCN(c2ccc(O)cc2)CC1` [I.25, Anthracen-1-yl-[4-(4-hydroxy-phenyl)-piperazin-1-yl]-methanone] cannot be ordered by inhibition at 10 µM: over 90% for the first, over 90% for the second.

`O=C(O)C1C2CCC(O2)C1C(=O)N1CCN(c2ccc(O)cn2)CC1` (centres unmarked) [I.105, 3-[4-(5-Hydroxy-pyridin-2-yl)-piperazine-1-carbonyl]-7-oxa-bicyclo-[2.2.1]heptane-2-carboxylic acid] and `O=C(/C=C/C1CCCCC1)N1CCN(c2ccc(O)cn2)CC1` [I.120, (E)-3-Cyclo-hexyl-1-[4-(5-hydroxy-2-pyridyl)-piperazin-1-yl]prop-2-en-1-one] cannot be ordered by inhibition at 10 µM: over 90% for the first, over 90% for the second.

`O=C(/C=C/c1ccc([N+](=O)[O-])cc1)N1CCN(c2ccc(O)cn2)CC1` [I.77, (E)-1-[4-(5-Hydroxy-pyridin-2-yl)-piperazin-1-yl]-3-(4-nitro-phenyl)-propenone] and `O=C(/C=C/c1ccc(Cl)cc1)N1CCN(c2ccc(O)cn2)CC1` [I.78, (E)-3-(4-Chlorophenyl)-1-[4-(5-hydroxy-pyridin-2-yl)-piperazin-1-yl]-propenone] cannot be ordered by inhibition at 10 µM: over 90% for the first, over 90% for the second.

`O=C(C(c1ccccc1)C1CCCCC1)N1CCN(c2ccc(O)cn2)CC1` (centres unmarked) [I.99, 2-Cyclo-hexyl-1-[4-(5-hydroxy-2-pyridyl)-piperazin-1-yl]-2-phenyl-ethanone] and `O=C(O)c1ccccc1C(=O)N1CCN(c2ccc(O)cn2)CC1` [I.111, 2-[4-(5-Hydroxy-pyridin-2-yl)-piperazine-1-carbonyl]-benzoic acid] cannot be ordered by inhibition at 10 µM: over 90% for the first, over 90% for the second.

`CCCCOc1ccc(CCC(=O)N2CCN(c3ccc(O)cc3)CC2)cc1` [I.13, 3-(4-Butoxy-phenyl)-1-[4-(4-hydroxy-phenyl)-piperazin-1-yl]-propan-1-one] and `CCCCOc1ccc(/C=C/C(=O)N2CCN(c3ccc(O)cc3)CC2)cc1` [I.12, 3-(4-Butoxy-phenyl)-1-[4-(4-hydroxy-phenyl)-piperazin-1-yl]-propenone] cannot be ordered by inhibition at 10 µM: over 90% for the first, over 90% for the second.

`CCCCn1cc(C(=O)N2CCN(c3ccc(O)cc3)CC2)c2ccccc21` [I.18, (1-Butyl-1H-indol-3-yl)-[4-(4-hydroxy-phenyl)-piperazin-1-yl]-methanone] and `O=C(c1cc2ccccc2c2ccccc12)N1CCN(c2ccc(O)cc2)CC1` [I.22, [4-(4-Hydroxy-phenyl)-piperazin-1-yl]-phenanthren-9-yl-methanone] cannot be ordered by inhibition at 10 µM: over 90% for the first, over 90% for the second.

`CC(=O)N[C@@H](C(=O)N1CCN(c2ccc(O)cc2)CC1)c1ccccc1` [I.19, N-{(1R)-2-[4-(4-Hydroxy-phenyl)-piperazin-1-yl]-2-oxo-1-phenyl-ethyl}acet-amide] and `O=C(C(=O)N1CCN(c2ccc(O)cc2)CC1)c1ccccc1` [I.17, 1-[4-(4-hydroxyphenyl)-piperazin-1-yl]-2-phenyl-ethane-1,2-dione] cannot be ordered by inhibition at 10 µM: over 90% for the first, over 90% for the second.

`COc1ccc(CCC(=O)N2CCN(c3ccc(O)cn3)CC2)cc1` [I.101, 3-(4-Methoxy-phenyl)-1-[4-(5-hydroxy-pyridin-2-yl)-piperazin-1-yl]-propan-1-one hydrochloride] and `O=C(CCc1ccc(O)cc1)N1CCN(c2ccc(O)cn2)CC1` [I.100, 3-(4-Hydroxy-phenyl)-1-[4-(5-hydroxy-pyridin-2-yl)-piperazin-1-yl]-propan-1-one] cannot be ordered by inhibition at 10 µM: over 90% for the first, over 90% for the second.

`O=C(c1ccnc(N2CCOCC2)c1)N1CCN(c2ccc(O)cc2)CC1` [I.35, [4-(4-Hydroxy-phenyl)-piperazin-1-yl]-(2-morpholino-4-pyridyl)-methanone] and `O=C(c1cc(-c2ccccc2)nc(N2CCOCC2)c1)N1CCN(c2ccc(O)cc2)CC1` [I.33, [4-(4-Hydroxy-phenyl)-piperazin-1-yl]-(2-morpholino-6-phenyl-4-pyridyl)-methanone] cannot be ordered by inhibition at 10 µM: over 90% for the first, over 90% for the second.

`O=C(CCC12CC3CC(CC(C3)C1)C2)N1CCN(c2ccc(O)cn2)CC1` [I.98, 3-(1-Adamantyl)-1-[4-(5-hydroxy-2-pyridyl)-piperazin-1-yl]propan-1-one] and `CN(C)c1ccc(CCC(=O)N2CCN(c3ccc(O)cn3)CC2)cc1` [I.108, 3-(4-Dimethyl-aminophenyl)-[4-(5-hydroxy-pyridin-2-yl)-piperazin-1-yl]-propan-1-one] cannot be ordered by inhibition at 10 µM: over 90% for the first, over 90% for the second.

`Cc1ccc(C(=O)N2CCN(c3ccc(O)cn3)CC2)cc1Nc1nccc(-c2cccnc2)n1` [I.85, [4-(5-hydroxy-pyridin-2-yl)-piperazin-1-yl]-[4-methyl-3-(4-pyridin-3-yl-pyrimidin-2-ylamino)-phenyl]-methanone] and `O=C(c1nc2ccccc2[nH]1)N1CCN(c2ccc(O)cn2)CC1` [I.86, (1H-Benzo-imidazol-2-yl)-[4-(5-hydroxy-pyridin-2-yl)-piperazin-1-yl]-methanone] cannot be ordered by inhibition at 10 µM: over 90% for the first, over 90% for the second.

`COCCOc1ccc2[nH]cc(C(=O)N3CCN(c4ccc(O)cc4)CC3)c2c1` [I.10, [4-(4-Hydroxy-phenyl)-piperazin-1-yl]-[5-(2-methoxy-ethoxy)-1H-indol-3-yl]-methanone] and `O=C(CCc1ccc2ccccc2c1)N1CCN(c2ccc(O)cc2)CC1` [I.23, 1-[4-(4-Hydroxy-phenyl)-piperazin-1-yl]-3-naphthalen-2-yl-propan-1-one] cannot be ordered by inhibition at 10 µM: over 90% for the first, over 90% for the second.

`O=C(c1ccc(Br)s1)N1CCN(c2ccc(O)cn2)CC1` [I.87, (5-Bromo-thiophen-2-yl)-[4-(5-hydroxy-pyridin-2-yl)-piperazin-1-yl]-methanone] and `O=C(c1ccc(Cl)s1)N1CCN(c2ccc(O)cn2)CC1` [I.76, (5-Chloro-thiophen-2-yl)-[4-(5-hydroxy-pyridin-2-yl)-piperazin-1-yl]-methanone] cannot be ordered by inhibition at 10 µM: over 90% for the first, over 90% for the second.

`CC(C)Cc1ccc(CCC(=O)N2CCN(c3ccc(O)cn3)CC2)cc1` [I.90, 1-[4-(5-Hydroxy-pyridin-2-yl)-piperazin-1-yl]-3-(4-isobutyl-phenyl)-propan-1-one] and `Cc1cn(-c2cc(C(=O)N3CCN(c4ccc(O)cn4)CC3)cc(C(F)(F)F)c2)cn1` [I.81, [4-(5-Hydroxy-pyridin-2-yl)-piperazin-1-yl]-[3-(4-methyl-imidazol-1-yl)-5-trifluoro-methylphenyl]-methanone] cannot be ordered by inhibition at 10 µM: over 90% for the first, over 90% for the second.

`O=C(c1cccn2c(-c3ccc(C(F)(F)F)cc3)cnc12)N1CCN(c2ccc(O)cc2)CC1` [I.31, [4-(4-hydroxy-phenyl)-piperazin-1-yl]-[3-(4-trifluoromethyl-phenyl)-imidazo[1,2-a]pyridin-8-yl]-methanone] and `O=C(c1cc(-c2ccccc2)nc(-c2ccccc2)c1)N1CCN(c2ccc(O)cc2)CC1` [I.20, (2,6-diphenyl-4-pyridyl)-[4-(4-hydroxyphenyl)piperazin-1-yl]methanone] cannot be ordered by inhibition at 10 µM: over 90% for the first, over 90% for the second.

First: O=C(O)c1cc(N2CCN(C(=O)c3cc(-c4ccccc4)nc(-c4ccccc4)c3)CC2)ccc1O [I.38, 5-[4-(2,6-Diphenyl-pyridine-4-carbonyl)-piperazin-1-yl]-2-hydroxy-benzoic acid]
Second: N#Cc1cc(N2CCN(C(=O)c3cc(-c4ccccc4)nc(-c4ccccc4)c3)CC2)ccc1O [I.37, 5-[4-(2,6-diphenylpyridine-4-carbonyl)piperazin-1-yl]-2-hydroxy-benzonitrile]
The inhibition at 10 µM of the first is higher: over 90% for the first, 50 to 69% for the second.
